Experimental data published in the supplement of paper PMC10307832.

Legend:
Experiment in all cases: relative viability (nuclei count vs DMSO), 5 days (fraction); higher = more cells survive
[1] = system: SK-MES-1
Method in brief: (§1)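 Values are medians from duplicate plates. Each reflects relative viability, defined as the nuclei count of treated wells over that of vehicle wells. Lung cancer cell lines in 1536-well plates were pin-tool dosed one day after seeding with one drug alone or with a fixed anchor-drug dose plus five library-drug doses (not always all listed) in √10 steps, then fixed, stained and imaged at 4× after 5 days.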

[2] = system: LU99A
Method in brief: as §1

[3] = system: NCI-H1650
Method in brief: as §1

[4] = system: LXF-289
Method in brief: as §1

[5] = system: A-427
Method in brief: as §1

[6] = system: NCI-H2347
Method in brief: as §1

[7] = system: NCI-H358
Method in brief: as §1

[8] = system: NCI-H727
Method in brief: as §1

[9] = system: NCI-H1975
Method in brief: as §1

[10] = system: NCI-H650
Method in brief: as §1

[11] = system: CAL-12T
Method in brief: as §1

[12] = system: NCI-H1993
Method in brief: as §1

[13] = system: COR-L 105
Method in brief: as §1

[14] = system: NCI-H2009
Method in brief: as §1

[15] = system: NCI-H1395
Method in brief: as §1

[16] = system: NCI-H1666
Method in brief: as §1

[17] = system: NCI-H460
Method in brief: as §1

[18] = system: BEN
Method in brief: as §1

[19] = system: EPLC-272H
Method in brief: as §1

[20] = system: NCI-H1793
Method in brief: as §1

[21] = system: LCLC-103H
Method in brief: as §1

[22] = system: ChaGo-K-1
Method in brief: as §1

[23] = system: HOP-62
Method in brief: as §1

[24] = system: NCI-H441
Method in brief: as §1

Cc1cn(-c2cc(NC(=O)c3ccc(C)c(Nc4nccc(-c5cccnc5)n4)c3)cc(C(F)(F)F)c2)cn1 [Nilotinib] + CS(=O)(=O)CCNCc1ccc(-c2ccc3ncnc(Nc4ccc(OCc5cccc(F)c5)c(Cl)c4)c3c2)o1 [Lapatinib] (partner 2 µM)
relative viability ([1]; first compound 0.003162 µM): 0.663 | relative viability ([1]; first compound 0.01 µM): 0.665 | relative viability ([1]; first compound 0.03162 µM): 0.541 | relative viability ([1]; first compound 0.1 µM): 0.557 | relative viability ([2]; first compound 0.001 µM): 0.954 | relative viability ([2]; first compound 0.003162 µM): 0.924 | relative viability ([2]; first compound 0.01 µM): 0.921 | relative viability ([2]; first compound 0.03162 µM): 0.775 | relative viability ([2]; first compound 0.1 µM): 0.153 | relative viability ([3]; first compound 0.001 µM): 0.851 | relative viability ([3]; first compound 0.003162 µM): 0.931 | relative viability ([3]; first compound 0.01 µM): 0.917 | relative viability ([3]; first compound 0.03162 µM): 0.668 | relative viability ([3]; first compound 0.1 µM): 0.424 | relative viability ([4]; first compound 0.001 µM): 0.839 | relative viability ([4]; first compound 0.003162 µM): 1.05 | relative viability ([4]; first compound 0.01 µM): 0.927 | relative viability ([4]; first compound 0.03162 µM): 0.941 | relative viability ([4]; first compound 0.1 µM): 0.63 | relative viability ([5]; first compound 0.001 µM): 1.05 | relative viability ([5]; first compound 0.01 µM): 1.13 | relative viability ([5]; first compound 0.03162 µM): 1.08 | relative viability ([5]; first compound 0.1 µM): 0.211 | relative viability ([6]; first compound 0.001 µM): 0.821 | relative viability ([6]; first compound 0.003162 µM): 1.01 | relative viability ([6]; first compound 0.01 µM): 0.823 | relative viability ([6]; first compound 0.03162 µM): 0.817 | relative viability ([6]; first compound 0.1 µM): 0.6 | relative viability ([7]; first compound 0.001 µM): 0.442 | relative viability ([7]; first compound 0.003162 µM): 0.529 | relative viability ([7]; first compound 0.01 µM): 0.539 | relative viability ([7]; first compound 0.03162 µM): 0.438 | relative viability ([7]; first compound 0.1 µM): 0.325 | relative viability ([8]; first compound 0.001 µM): 0.858 | relative viability ([8]; first compound 0.01 µM): 0.985 | relative viability ([8]; first compound 0.03162 µM): 0.591 | relative viability ([8]; first compound 0.1 µM): 0.368 | relative viability ([9]; first compound 0.001 µM): 0.859 | relative viability ([9]; first compound 0.003162 µM): 1.18 | relative viability ([9]; first compound 0.01 µM): 0.894 | relative viability ([9]; first compound 0.03162 µM): 0.658 | relative viability ([9]; first compound 0.1 µM): 0.433 | relative viability ([10]; first compound 0.001 µM): 0.897 | relative viability ([10]; first compound 0.003162 µM): 0.65 | relative viability ([10]; first compound 0.01 µM): 0.918 | relative viability ([10]; first compound 0.03162 µM): 0.851 | relative viability ([10]; first compound 0.1 µM): 0.682 | relative viability ([11]; first compound 0.001 µM): 0.729 | relative viability ([11]; first compound 0.01 µM): 0.748 | relative viability ([11]; first compound 0.03162 µM): 0.839 | relative viability ([11]; first compound 0.1 µM): 0.74 | relative viability ([12]; first compound 0.001 µM): 0.797 | relative viability ([12]; first compound 0.003162 µM): 0.863 | relative viability ([12]; first compound 0.01 µM): 0.77 | relative viability ([12]; first compound 0.03162 µM): 0.874 | relative viability ([12]; first compound 0.1 µM): 0.651 | relative viability ([13]; first compound 0.001 µM): 0.418 | relative viability ([13]; first compound 0.01 µM): 0.375 | relative viability ([13]; first compound 0.03162 µM): 0.352 | relative viability ([13]; first compound 0.1 µM): 0.286 | relative viability ([14]; first compound 0.001 µM): 0.788 | relative viability ([14]; first compound 0.003162 µM): 1.1 | relative viability ([14]; first compound 0.01 µM): 1.08 | relative viability ([14]; first compound 0.03162 µM): 1.01 | relative viability ([14]; first compound 0.1 µM): 0.191 | relative viability ([15]; first compound 0.001 µM): 1.02 | relative viability ([15]; first compound 0.003162 µM): 0.575 | relative viability ([15]; first compound 0.01 µM): 0.9 | relative viability ([15]; first compound 0.03162 µM): 1.14 | relative viability ([15]; first compound 0.1 µM): 0.596 | relative viability ([16]; first compound 0.001 µM): 0.772 | relative viability ([16]; first compound 0.003162 µM): 0.901 | relative viability ([16]; first compound 0.01 µM): 0.461 | relative viability ([16]; first compound 0.03162 µM): 0.655 | relative viability ([16]; first compound 0.1 µM): 0.641 | relative viability ([17]; first compound 0.001 µM): 0.521 | relative viability ([17]; first compound 0.03162 µM): 0.378 | relative viability ([17]; first compound 0.1 µM): 0.0571 | relative viability ([18]; first compound 0.001 µM): 0.759 | relative viability ([18]; first compound 0.003162 µM): 0.74 | relative viability ([18]; first compound 0.01 µM): 0.757 | relative viability ([18]; first compound 0.03162 µM): 0.518 | relative viability ([18]; first compound 0.1 µM): 0.508 | relative viability ([19]; first compound 0.001 µM): 0.877 | relative viability ([19]; first compound 0.003162 µM): 1.23 | relative viability ([19]; first compound 0.01 µM): 0.775 | relative viability ([19]; first compound 0.03162 µM): 0.976 | relative viability ([19]; first compound 0.1 µM): 0.402 | relative viability ([20]; first compound 0.003162 µM): 0.842 | relative viability ([20]; first compound 0.01 µM): 1.02 | relative viability ([20]; first compound 0.03162 µM): 0.859 | relative viability ([20]; first compound 0.1 µM): 0.21

Nc1cccc2c1CN(C1CCC(=O)NC1=O)C2=O (stereo unspecified) [Lenalidomide] + CS(=O)(=O)N1CCN(Cc2cc3nc(-c4cccc5[nH]ncc45)nc(N4CCOCC4)c3s2)CC1 [Pictilisib] (partner 1 µM)
relative viability ([21]; first compound 0.253 µM): 0.603 | relative viability ([21]; first compound 0.8 µM): 0.547 | relative viability ([21]; first compound 2.53 µM): 0.621 | relative viability ([21]; first compound 8 µM): 0.556 | relative viability ([1]; first compound 0.253 µM): 0.373 | relative viability ([1]; first compound 0.8 µM): 0.482 | relative viability ([1]; first compound 2.53 µM): 0.403 | relative viability ([1]; first compound 8 µM): 0.336 | relative viability ([2]; first compound 0.253 µM): 0.31 | relative viability ([2]; first compound 0.8 µM): 0.324 | relative viability ([2]; first compound 2.53 µM): 0.371 | relative viability ([2]; first compound 8 µM): 0.238 | relative viability ([22]; first compound 0.253 µM): 0.791 | relative viability ([22]; first compound 2.53 µM): 0.739 | relative viability ([22]; first compound 8 µM): 0.625 | relative viability ([3]; first compound 0.253 µM): 0.562 | relative viability ([3]; first compound 0.8 µM): 0.441 | relative viability ([3]; first compound 2.53 µM): 0.731 | relative viability ([3]; first compound 8 µM): 0.637 | relative viability ([4]; first compound 0.253 µM): 0.835 | relative viability ([4]; first compound 0.8 µM): 0.827 | relative viability ([4]; first compound 2.53 µM): 0.864 | relative viability ([4]; first compound 8 µM): 0.845 | relative viability ([5]; first compound 0.253 µM): 0.796 | relative viability ([5]; first compound 2.53 µM): 0.744 | relative viability ([5]; first compound 8 µM): 0.676 | relative viability ([6]; first compound 0.253 µM): 0.396 | relative viability ([6]; first compound 0.8 µM): 0.634 | relative viability ([6]; first compound 2.53 µM): 0.602 | relative viability ([6]; first compound 8 µM): 0.49 | relative viability ([7]; first compound 0.253 µM): 0.399 | relative viability ([7]; first compound 0.8 µM): 0.428 | relative viability ([7]; first compound 2.53 µM): 0.384 | relative viability ([7]; first compound 8 µM): 0.302 | relative viability ([8]; first compound 0.253 µM): 0.418 | relative viability ([8]; first compound 2.53 µM): 0.44 | relative viability ([8]; first compound 8 µM): 0.306 | relative viability ([9]; first compound 0.253 µM): 0.316 | relative viability ([9]; first compound 0.8 µM): 0.228 | relative viability ([9]; first compound 2.53 µM): 0.278 | relative viability ([9]; first compound 8 µM): 0.223 | relative viability ([10]; first compound 0.253 µM): 0.822 | relative viability ([10]; first compound 2.53 µM): 0.911 | relative viability ([10]; first compound 8 µM): 0.739 | relative viability ([11]; first compound 0.253 µM): 0.406 | relative viability ([11]; first compound 2.53 µM): 0.561 | relative viability ([11]; first compound 8 µM): 0.358 | relative viability ([12]; first compound 0.253 µM): 0.824 | relative viability ([12]; first compound 0.8 µM): 0.827 | relative viability ([12]; first compound 2.53 µM): 0.872 | relative viability ([12]; first compound 8 µM): 0.803 | relative viability ([13]; first compound 0.253 µM): 0.278 | relative viability ([13]; first compound 0.8 µM): 0.398 | relative viability ([13]; first compound 2.53 µM): 0.554 | relative viability ([13]; first compound 8 µM): 0.363 | relative viability ([14]; first compound 0.253 µM): 0.852 | relative viability ([14]; first compound 0.8 µM): 1.01 | relative viability ([14]; first compound 2.53 µM): 0.941 | relative viability ([14]; first compound 8 µM): 0.768 | relative viability ([15]; first compound 0.253 µM): 0.682 | relative viability ([15]; first compound 2.53 µM): 0.647 | relative viability ([15]; first compound 8 µM): 0.569 | relative viability ([23]; first compound 0.253 µM): 0.627 | relative viability ([23]; first compound 0.8 µM): 0.834 | relative viability ([23]; first compound 2.53 µM): 0.922 | relative viability ([23]; first compound 8 µM): 0.535 | relative viability ([16]; first compound 0.253 µM): 0.471 | relative viability ([16]; first compound 0.8 µM): 0.372 | relative viability ([16]; first compound 2.53 µM): 0.495 | relative viability ([16]; first compound 8 µM): 0.488 | relative viability ([17]; first compound 0.253 µM): 0.363 | relative viability ([17]; first compound 0.8 µM): 0.263 | relative viability ([17]; first compound 2.53 µM): 0.25 | relative viability ([17]; first compound 8 µM): 0.264 | relative viability ([18]; first compound 0.253 µM): 0.69 | relative viability ([18]; first compound 0.8 µM): 0.504 | relative viability ([18]; first compound 2.53 µM): 0.644 | relative viability ([18]; first compound 8 µM): 0.436 | relative viability ([19]; first compound 0.253 µM): 0.325 | relative viability ([19]; first compound 2.53 µM): 0.361 | relative viability ([19]; first compound 8 µM): 0.274 | relative viability ([24]; first compound 0.253 µM): 0.383 | relative viability ([24]; first compound 0.8 µM): 0.453 | relative viability ([24]; first compound 2.53 µM): 0.522 | relative viability ([24]; first compound 8 µM): 0.433 | relative viability ([20]; first compound 0.253 µM): 0.554 | relative viability ([20]; first compound 0.8 µM): 0.289 | relative viability ([20]; first compound 2.53 µM): 0.409 | relative viability ([20]; first compound 8 µM): 0.228
